# In patent US8846675B2, “N-linked heterocyclic receptor agonists for the treatment of diabetes and metabolic disorders” (Cymabay Therapeutics, Inc., priority 2007, dated 2014):
# Target: T1, IC-GPCR2 (Homo sapiens, UniProt Q8TDV5, S309L)
# T1 construct: expressed in transfected cells
# T1 sequence (Q8TDV5 1-335 S309L): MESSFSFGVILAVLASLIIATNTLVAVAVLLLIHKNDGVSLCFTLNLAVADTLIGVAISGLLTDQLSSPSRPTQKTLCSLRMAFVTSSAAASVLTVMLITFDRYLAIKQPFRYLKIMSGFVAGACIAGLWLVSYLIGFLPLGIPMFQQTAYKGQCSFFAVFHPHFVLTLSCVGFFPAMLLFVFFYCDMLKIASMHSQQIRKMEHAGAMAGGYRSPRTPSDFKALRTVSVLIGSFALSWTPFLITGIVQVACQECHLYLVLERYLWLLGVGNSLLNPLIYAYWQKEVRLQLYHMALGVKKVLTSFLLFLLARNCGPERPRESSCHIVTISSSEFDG
# Assay: Stimulation of cAMP in CHO cell line stably expressing IC-GPCR2 (HTRF cAMP dynamic kit)
# Assay type: cell-based
# Settings: 3 μM compound; IC-GPCR2 stably expressing CHO cells; not included in Table 1
# Summary of the method: (§1)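 CHO cells stably expressing IC-GPCR2, with parental CHO as counter-screen, were exposed to compound (0.00003–10 μM) for 30 min in Ham's F12. Intracellular cAMP read by HTRF competitive immunoassay (665/620 nm ratio). Activity at 3 μM expressed as % of maximal signal from a reference agonist.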
row,SMILES,activity when tested at 3 μM (in words)
1,"Cc1nc(C)c(S(=O)(=O)N2CCC(n3ncc(COc4ccc(-n5cnnn5)nc4)n3)CC2)s1 [Example 39, 5-(4-(4-((6-(1H-Tetrazol-1-yl)pyridin-3-yloxy)methyl)-2H-1,2,3-triazol-2-yl)piperidin-1-ylsulfonyl)-2,4-dimethylthiazole]",did not exhibit activity
2,"Cn1cnc(S(=O)(=O)N2CCC(n3ncc(COc4ccc(-n5cnnn5)nc4)n3)CC2)c1 [Example 42, 5-((2-(1-(1-Methyl-1H-imidazol-4-ylsulfonyl)piperidin-4-yl)-2H-1,2,3-triazol-4-yl)methoxy)-2-(1H-tetrazol-1-yl)pyridine]",did not exhibit activity
3,"Cc1noc(C)c1S(=O)(=O)N1CCC(n2ncc(COc3ccc(-n4cnnn4)nc3)n2)CC1 [Example 43, 4-(4-(4-((6-(1H-Tetrazol-1-yl)pyridin-3-yloxy)methyl)-2H-1,2,3-triazol-2-yl)piperidin-1-ylsulfonyl)-3,5-dimethylisoxazole]",did not exhibit activity
4,"C[C@H](NC(=O)OC(C)(C)C)C(=O)N1CCC(n2ncc(COc3ccc(-n4cnnn4)nc3)n2)CC1 [Example 53, (S)-tert-Butyl 1-(4-(4-((6-(1H-tetrazol-1-yl)pyridin-3-yloxy)methyl)-2H-1,2,3-triazol-2-yl)piperidin-1-yl)-1-oxopropan-2-ylcarbamate]",did not exhibit activity
5,"COC(=O)c1cc(C)nc(N2CCC(n3ncc(COc4ccc(-n5cnnn5)nc4)n3)CC2)n1 [Example 79, Methyl 2-(4-(4-((6-(1H-tetrazol-1-yl)pyridin-3-yloxy)methyl)-2H-1,2,3-triazol-2-yl)piperidin-1-yl)-6-methylpyrimidine-4-carboxylate]",did not exhibit activity
6,"Cn1nc(OCc2cnn(C3CCN(c4ncc(Cl)cn4)CC3)n2)cc1C(F)(F)F [Example 97, 5-Chloro-2-{4-[4-(1-methyl-5-trifluoromethyl-1H-pyrazol-3-yloxymethyl)-[1,2,3]-triazol-2-yl]-piperidin-1-yl}-pyrimidine]",did not exhibit activity

# Target: T2, IC-GPCR2 (Homo sapiens, UniProt Q8TDV5)
# T2 construct: expressed in transfected cells
# T2 sequence (Q8TDV5 1-335 S309L): T1 sequence (Q8TDV5 1-335 S309L)
# Assay: as above
# Assay type: cell-based
# Settings: 3 μM compound; relative to maximal activity of 5-Ethyl-2-{4-[4-(4-tetrazol-1-yl-phenoxymethyl)-thiazol-2-yl]-piperidin-1-yl}-pyrimidine (=100%); IC-GPCR2 stably expressing CHO cells, 30 minutes
# Summary of the method: as §1
row,SMILES,% activity at 3 μM
1,"CCc1cnc(N2CCC(n3ccc(COc4ccc(-n5cnnn5)cc4F)n3)CC2)nc1 [Example 113, 5-Ethyl-2-(4-(3-((2-fluoro-4-(1H-tetrazol-1-yl)phenoxy)methyl)-1H-pyrazol-1-yl)piperidin-1-yl)pyrimidine]",57.71%
